Consider four molecules from article PMC7026418, “The kinase polypharmacology landscape of clinical PARP inhibitors” (Scientific Reports, 2020).

What all share (assay): biochemical
What all share (design): DiscoveRx KINOMEscan active site-directed competition binding; percent of control kinase bound to immobilised ligand

Experiment [1] concerns the target RET (Homo sapiens, UniProt P07949).
Experiment [2] addresses T1, CDK11 (Homo sapiens, UniProt Q9BWU1).
T1 construct: gene CDK19

For experiment [3], the target named is T2, TSSK3 (Homo sapiens, UniProt Q96PN8).
T2 sequence (Q96PN8 1-268): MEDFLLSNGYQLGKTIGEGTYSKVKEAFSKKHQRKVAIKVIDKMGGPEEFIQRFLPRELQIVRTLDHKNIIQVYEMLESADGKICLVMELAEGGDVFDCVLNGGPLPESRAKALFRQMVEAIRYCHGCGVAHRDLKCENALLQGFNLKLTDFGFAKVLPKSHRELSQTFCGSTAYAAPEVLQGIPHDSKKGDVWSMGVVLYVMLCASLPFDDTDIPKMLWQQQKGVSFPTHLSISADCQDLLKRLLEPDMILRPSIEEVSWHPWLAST

Experiment [4] addresses T3, MEK6 (Homo sapiens, UniProt P52564).
T3 construct: gene MAP2K6
T3 sequence (P52564 1-334): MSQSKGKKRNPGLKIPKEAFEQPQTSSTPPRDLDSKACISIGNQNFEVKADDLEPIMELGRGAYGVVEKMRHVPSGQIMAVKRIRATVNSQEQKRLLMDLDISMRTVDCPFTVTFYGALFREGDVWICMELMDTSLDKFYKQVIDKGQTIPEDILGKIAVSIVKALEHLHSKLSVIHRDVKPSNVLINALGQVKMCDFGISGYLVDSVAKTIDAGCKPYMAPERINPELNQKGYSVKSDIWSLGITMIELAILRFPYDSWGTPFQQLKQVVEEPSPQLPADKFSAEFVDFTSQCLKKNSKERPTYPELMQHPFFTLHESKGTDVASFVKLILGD

The target of experiment [5] is T4, HASPIN (Homo sapiens, UniProt Q8TF76).
T4 sequence (Q8TF76 1-798): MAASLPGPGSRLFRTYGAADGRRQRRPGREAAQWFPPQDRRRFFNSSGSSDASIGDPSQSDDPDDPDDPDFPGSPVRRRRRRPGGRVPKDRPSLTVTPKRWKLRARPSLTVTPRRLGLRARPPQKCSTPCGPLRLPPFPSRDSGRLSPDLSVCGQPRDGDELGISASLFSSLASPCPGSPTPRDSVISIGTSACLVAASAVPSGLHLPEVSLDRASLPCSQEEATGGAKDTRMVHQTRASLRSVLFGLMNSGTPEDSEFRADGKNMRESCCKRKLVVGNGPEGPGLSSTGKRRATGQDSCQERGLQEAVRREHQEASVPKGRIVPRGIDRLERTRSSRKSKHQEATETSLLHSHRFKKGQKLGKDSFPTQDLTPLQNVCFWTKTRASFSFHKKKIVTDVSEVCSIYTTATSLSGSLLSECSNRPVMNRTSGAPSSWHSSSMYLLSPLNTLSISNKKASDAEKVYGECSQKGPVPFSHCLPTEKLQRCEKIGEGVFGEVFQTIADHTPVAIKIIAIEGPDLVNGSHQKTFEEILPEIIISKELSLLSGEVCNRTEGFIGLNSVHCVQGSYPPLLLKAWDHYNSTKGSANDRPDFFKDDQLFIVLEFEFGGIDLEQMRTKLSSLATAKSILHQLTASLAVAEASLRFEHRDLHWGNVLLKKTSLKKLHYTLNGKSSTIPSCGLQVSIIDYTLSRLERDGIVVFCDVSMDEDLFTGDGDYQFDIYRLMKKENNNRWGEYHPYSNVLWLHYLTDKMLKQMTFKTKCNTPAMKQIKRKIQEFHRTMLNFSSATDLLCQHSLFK

Experiment [6] deals with T5, TYRO3 (Homo sapiens, UniProt Q06418).
T5 sequence (Q06418 1-890): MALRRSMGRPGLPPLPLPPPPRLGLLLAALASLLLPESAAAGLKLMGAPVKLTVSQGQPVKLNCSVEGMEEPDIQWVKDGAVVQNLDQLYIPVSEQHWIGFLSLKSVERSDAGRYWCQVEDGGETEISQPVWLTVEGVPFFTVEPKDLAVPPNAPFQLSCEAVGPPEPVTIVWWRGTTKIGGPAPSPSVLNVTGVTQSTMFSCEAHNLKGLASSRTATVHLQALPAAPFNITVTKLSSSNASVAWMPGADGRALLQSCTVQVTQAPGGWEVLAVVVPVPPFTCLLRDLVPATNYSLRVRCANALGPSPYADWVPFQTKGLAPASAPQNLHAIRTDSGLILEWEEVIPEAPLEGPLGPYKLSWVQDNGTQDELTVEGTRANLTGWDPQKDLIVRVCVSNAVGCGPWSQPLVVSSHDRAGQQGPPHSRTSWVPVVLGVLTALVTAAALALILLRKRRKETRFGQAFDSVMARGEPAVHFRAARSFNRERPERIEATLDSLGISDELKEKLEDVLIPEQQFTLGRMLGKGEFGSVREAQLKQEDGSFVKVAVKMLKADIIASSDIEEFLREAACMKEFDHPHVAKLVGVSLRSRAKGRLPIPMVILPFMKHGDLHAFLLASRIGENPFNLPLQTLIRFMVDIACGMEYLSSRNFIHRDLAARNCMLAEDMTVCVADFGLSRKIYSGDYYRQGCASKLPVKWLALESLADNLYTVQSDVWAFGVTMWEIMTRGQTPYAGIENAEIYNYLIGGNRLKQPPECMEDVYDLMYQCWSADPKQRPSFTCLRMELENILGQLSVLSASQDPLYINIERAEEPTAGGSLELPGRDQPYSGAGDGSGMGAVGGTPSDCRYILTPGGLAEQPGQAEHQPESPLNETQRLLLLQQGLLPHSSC

The mark [7] stands for this setting: read-out: Niraparib (MK-4827) / %Ctrl @ 10000nM.
[8] abbreviates: read-out: Olaparib / %Ctrl @ 10000nM.
[9] abbreviates: read-out: Rucaparib / %Ctrl @ 10000nM, binding competition, % of control.
The mark [10] stands for this setting: read-out: Talazoparib (BMN 673) / %Ctrl @ 10000nM.

Like-named read-outs stand apart in the source and are kept apart here.

Sequence of RET (P07949 whole entry): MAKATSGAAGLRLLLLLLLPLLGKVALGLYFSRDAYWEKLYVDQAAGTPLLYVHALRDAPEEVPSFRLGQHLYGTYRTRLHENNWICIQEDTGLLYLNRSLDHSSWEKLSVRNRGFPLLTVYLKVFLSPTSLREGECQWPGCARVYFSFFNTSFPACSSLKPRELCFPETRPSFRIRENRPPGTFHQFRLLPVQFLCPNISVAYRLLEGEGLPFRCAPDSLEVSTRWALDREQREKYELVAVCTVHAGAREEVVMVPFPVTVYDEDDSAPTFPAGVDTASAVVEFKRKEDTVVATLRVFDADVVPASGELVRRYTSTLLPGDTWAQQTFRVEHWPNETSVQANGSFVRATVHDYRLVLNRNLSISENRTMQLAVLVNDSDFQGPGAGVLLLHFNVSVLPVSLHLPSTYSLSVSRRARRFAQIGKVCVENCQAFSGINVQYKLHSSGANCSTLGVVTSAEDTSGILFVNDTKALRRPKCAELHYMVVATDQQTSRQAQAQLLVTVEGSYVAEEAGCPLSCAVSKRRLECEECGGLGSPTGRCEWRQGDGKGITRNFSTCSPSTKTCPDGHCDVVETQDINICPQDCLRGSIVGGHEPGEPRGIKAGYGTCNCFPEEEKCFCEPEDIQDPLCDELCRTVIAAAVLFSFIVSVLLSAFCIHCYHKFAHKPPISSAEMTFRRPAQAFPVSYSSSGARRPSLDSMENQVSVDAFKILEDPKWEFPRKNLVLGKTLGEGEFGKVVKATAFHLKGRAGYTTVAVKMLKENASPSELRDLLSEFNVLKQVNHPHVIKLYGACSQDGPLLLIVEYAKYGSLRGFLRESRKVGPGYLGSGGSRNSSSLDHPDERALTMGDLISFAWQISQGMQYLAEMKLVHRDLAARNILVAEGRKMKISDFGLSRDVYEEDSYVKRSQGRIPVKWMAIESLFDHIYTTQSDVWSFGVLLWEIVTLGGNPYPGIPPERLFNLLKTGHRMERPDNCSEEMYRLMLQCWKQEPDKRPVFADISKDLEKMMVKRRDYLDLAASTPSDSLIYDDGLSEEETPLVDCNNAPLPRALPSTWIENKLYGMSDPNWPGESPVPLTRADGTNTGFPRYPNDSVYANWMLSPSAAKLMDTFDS
T1 sequence (Q9BWU1 whole entry): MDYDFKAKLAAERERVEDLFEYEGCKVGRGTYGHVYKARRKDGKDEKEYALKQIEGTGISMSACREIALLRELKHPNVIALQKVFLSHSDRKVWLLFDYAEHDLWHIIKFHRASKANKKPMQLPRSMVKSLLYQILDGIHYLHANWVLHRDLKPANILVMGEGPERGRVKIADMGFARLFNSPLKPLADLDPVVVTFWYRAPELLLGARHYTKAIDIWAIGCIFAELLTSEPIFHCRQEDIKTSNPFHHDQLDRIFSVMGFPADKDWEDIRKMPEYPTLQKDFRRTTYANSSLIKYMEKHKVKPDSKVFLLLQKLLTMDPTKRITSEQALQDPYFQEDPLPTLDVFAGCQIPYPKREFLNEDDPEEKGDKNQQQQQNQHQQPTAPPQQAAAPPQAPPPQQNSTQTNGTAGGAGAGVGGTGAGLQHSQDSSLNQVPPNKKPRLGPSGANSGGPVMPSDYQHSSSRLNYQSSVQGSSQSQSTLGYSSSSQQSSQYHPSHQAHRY

Take `NC(=O)c1cccc2cn(-c3ccc([C@@H]4CCCNC4)cc3)nc12` [Niraparib]: the percent of control binding at 10 µM in experiment [1] (setting [7]) turned out to be 83%; in experiment [2] (setting [7]), 93%; in experiment [3] (setting [7]) it was 91%; in experiment [4] (setting [7]), 95%; in experiment [5] (setting [7]), 2.2%; in experiment [6] (setting [7]), 89%.

With `O=C(c1cc(Cc2n[nH]c(=O)c3ccccc23)ccc1F)N1CCN(C(=O)C2CC2)CC1` [Olaparib], the percent of control binding at 10 µM in experiment [1] (setting [8]) came out at 100%; in experiment [2] (setting [8]), 85%; in experiment [3] (setting [8]), 89%; in experiment [4] (setting [8]), 86%; in experiment [5] (setting [8]), 72%; in experiment [6] (setting [8]), 100%.

Regarding `CNCc1ccc(-c2[nH]c3cc(F)cc4c3c2CCNC4=O)cc1` [Rucaparib], the percent of control binding at 10 µM in experiment [1] (setting [9]) stood at 98%; in experiment [2] (setting [9]) it was 94%; in experiment [3] (setting [9]), 0%; in experiment [4] (setting [9]), 81%; in experiment [5] (setting [9]), 9%; in experiment [6] (setting [9]), 100%.

In the case of `Cn1ncnc1[C@H]1c2n[nH]c(=O)c3cc(F)cc(c23)N[C@@H]1c1ccc(F)cc1` [Talazoparib], the percent of control binding at 10 µM in experiment [1] (setting [10]) stood at 100%; in experiment [2] (setting [10]) it was 93%; in experiment [3] (setting [10]), 84%; in experiment [4] (setting [10]) it was 83%; in experiment [5] (setting [10]), 100%; in experiment [6] (setting [10]), 100%.
